Assay results from US7064229B2, “Succinic acid derivatives” (Bayer Healthcare AG, priority 2001, dated 2006).

Columns and labels:
[1] = target: α4β1 integrin (VLA-4) on Ramos cells / recombinant human VCAM-1 (extracellular domains 1–3) (Homo sapiens, UniProt P05556+P13612); test: Adhesion of Ramos cells to immobilized VCAM-1 (domains 1–3); format: cell-based; set-up: host or cells: Ramos cells; details: Ramos VCAM-1 assay; observed IC50 value ranges
Text: In Vitro Assay: Adhesion of Ramos Cells to Immobilized VCAM-1 (Domains 1–3) Preparation of VCAM-1 (Extracellular Domains 1–3)
Complementary DNA (cDNA) encoding 7-domain form of VCAM-1 (GenBank accession #M60335) was obtained using Rapid-Screen™ cDNA library panels (OriGene Technologies, Inc) at Takara Gene Analysis Center (Shiga, Japan). The primers used were 5′-CCAAGGCAGAGTACGCAAAC-3′ (sense) and 5′-TGGCAGGTATTATTAAGGAG-3′ (antisense). PCR amplification of the 3-domain VCAM-1 cDNA was perform using Pƒ. DNA polymerase (Stratagene) with the following sets of primers: (U-VCAMdl-3) 5′-CCATATGGTACCTGATCAATTTAAAATCGAGACCACCCCAGAA-3′; (L-VCAMdl-3) 5′-CCATATAGCAATCCTAGGTCCAGGGGAGATCTCAACAGTAAA-3′. PCR cycle was 94° C. for 45 sec, 55° C. for 45 sec, 72° C. for 2 min, repeating 15 cycles. After the purification of the PCR product, the fragment was digested with KpnI-AvrII. The digested fragment was ligated into pBluescript IISK(−) (Strategene), which was linearized by digesting with KpnI-XhoI. The ligation was followed by transformation to a Dam/Dcm methylase-free E. coli strain SCS110 (Strategene) to create the donor plasmid pHH7. To direct VCAM-1 molecule into the insect cell secretory pathway, the VCAM-1 coding sequence was fused to signal peptide sequence of honeybee melittin. The resulting melittin-VCAM fusion was placed in correct orientation to the baculovirus polyhedrin promoter. Baculovirus transfer vector containing first 3-domain form VCAM-1 (pH10) was constructed by ligation of 0.9 kb fragment from AvrII/Klenow/BclI digests of pH7 into SalI/Klenow/BamHI digests of pMelBacB (Invitrogen). […] The recombinant virus was amplified by infection to High-Five™ insect cells for 5–6 days, and virus titer was determined by plaque assay.
High-Five™ insect cells were pelleted in a 225 ml conical tube by centrifugation at 1000 rpm for 5 min. […] Protein concentration was determined by using Coomassie protein assay reagent (Pierce) according to the manufacture's instruction. […]
Preparation of Fluorescence Labeled Ramos Cells […]

α4β1 integrin (VLA-4) on Ramos cells / recombinant human VCAM-1 (extracellular domains 1–3), sequence (P13612 34-1032): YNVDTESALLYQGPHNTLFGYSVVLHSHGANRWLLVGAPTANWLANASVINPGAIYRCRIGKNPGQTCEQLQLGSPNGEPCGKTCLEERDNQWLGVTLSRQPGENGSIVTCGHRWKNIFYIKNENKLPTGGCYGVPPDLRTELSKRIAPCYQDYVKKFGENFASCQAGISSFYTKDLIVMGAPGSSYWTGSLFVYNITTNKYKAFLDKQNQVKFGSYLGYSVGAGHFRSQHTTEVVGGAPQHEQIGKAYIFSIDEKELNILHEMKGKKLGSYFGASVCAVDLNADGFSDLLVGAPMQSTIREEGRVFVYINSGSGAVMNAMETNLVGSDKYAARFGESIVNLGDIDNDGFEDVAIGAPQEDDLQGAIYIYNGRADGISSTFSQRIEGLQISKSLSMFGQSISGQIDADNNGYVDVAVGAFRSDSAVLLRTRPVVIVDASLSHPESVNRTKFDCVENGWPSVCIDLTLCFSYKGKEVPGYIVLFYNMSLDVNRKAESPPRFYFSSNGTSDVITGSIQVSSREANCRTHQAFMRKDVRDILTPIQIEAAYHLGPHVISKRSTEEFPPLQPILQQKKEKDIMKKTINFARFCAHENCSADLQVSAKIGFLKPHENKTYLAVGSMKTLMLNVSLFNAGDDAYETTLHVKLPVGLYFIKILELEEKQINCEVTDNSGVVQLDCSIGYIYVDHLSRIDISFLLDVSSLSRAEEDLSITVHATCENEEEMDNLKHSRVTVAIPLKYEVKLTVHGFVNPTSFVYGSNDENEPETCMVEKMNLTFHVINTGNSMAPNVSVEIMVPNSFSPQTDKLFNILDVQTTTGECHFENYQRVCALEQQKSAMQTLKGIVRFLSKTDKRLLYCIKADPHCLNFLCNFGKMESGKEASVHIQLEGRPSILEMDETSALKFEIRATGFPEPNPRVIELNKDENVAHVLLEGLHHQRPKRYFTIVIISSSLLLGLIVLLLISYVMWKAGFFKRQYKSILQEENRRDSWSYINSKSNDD
α4β1 integrin (VLA-4) on Ramos cells / recombinant human VCAM-1 (extracellular domains 1–3), sequence (P05556 21-798): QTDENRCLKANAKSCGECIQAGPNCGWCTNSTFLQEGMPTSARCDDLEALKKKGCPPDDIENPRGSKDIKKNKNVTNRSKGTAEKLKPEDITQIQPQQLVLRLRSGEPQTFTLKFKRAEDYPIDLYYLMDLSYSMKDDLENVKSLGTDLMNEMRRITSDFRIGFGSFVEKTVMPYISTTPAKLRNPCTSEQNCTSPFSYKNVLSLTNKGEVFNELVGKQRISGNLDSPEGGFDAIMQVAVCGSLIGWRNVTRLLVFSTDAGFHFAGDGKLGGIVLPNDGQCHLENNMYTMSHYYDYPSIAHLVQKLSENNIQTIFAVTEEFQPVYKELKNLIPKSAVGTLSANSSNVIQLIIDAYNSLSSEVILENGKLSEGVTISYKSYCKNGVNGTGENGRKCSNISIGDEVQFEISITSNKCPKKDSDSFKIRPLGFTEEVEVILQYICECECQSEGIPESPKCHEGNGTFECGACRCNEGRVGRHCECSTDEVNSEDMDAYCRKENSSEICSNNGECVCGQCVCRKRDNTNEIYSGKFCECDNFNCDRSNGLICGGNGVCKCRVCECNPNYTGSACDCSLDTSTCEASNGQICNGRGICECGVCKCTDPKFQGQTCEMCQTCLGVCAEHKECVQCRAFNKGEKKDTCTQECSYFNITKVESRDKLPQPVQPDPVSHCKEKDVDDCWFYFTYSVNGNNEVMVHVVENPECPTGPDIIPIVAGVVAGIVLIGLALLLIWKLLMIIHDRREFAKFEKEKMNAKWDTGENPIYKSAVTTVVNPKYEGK

## Cc1ccccc1NC(=O)Nc1ccc(NC(=O)C(CC(=O)Nc2ccc(C(=O)O)cc2)c2ccccc2)cc1 (centres unmarked) [Example 1, 4-[(4-{[4-({[(2-Methylphenyl)amino]carbonyl}amino)phenyl]-amino}-4-oxo-3-phenylbutanoyl)amino]benzoic acid]
[1]
  IC50: < 1 µM
other
  melting point: 169 °C

## Cc1ccccc1NC(=O)Nc1ccc(NC(=O)CC(C(=O)Nc2ccc(C(=O)O)cc2)c2ccccc2)cc1 (centres unmarked) [Example 2, 4-[(4-{[4-({[(2-Methyl-phenyl)amino]carbonyl}-ami-no)phenyl]amino}-4-oxo-2-phenyl-butanoyl)amino]benzoic acid]
[1]
  IC50: > 10 µM

## Cc1ccccc1NC(=O)Nc1ccc(CNC(=O)CC(C(=O)Nc2ccc(C(=O)O)cc2)c2ccccc2)cc1 (centres unmarked) [Example 4, 4-[(4-{[4-({[(2-Methyl-phenyl)amino]carbonyl}-ami-no)benzyl]amino}-4-oxo-2-phenyl-butanoyl)-ami-no]benzoic acid]
[1]
  IC50: < 1 µM
other
  melting point: 126 °C
